Assay results as given in patent publication US6461997B1, “Triazole sulfones having herbicidal activity” (Monsanto Technology LLC, priority 1999, dated 2002).

Key:
[1] = tested on: PANMI (wild proso millet); assay: Pre-emergence herbicidal activity, warm season; assay type: in vivo, Panicum miliaceum; details: GR80 = lowest tested rate (300, 100, 30, 10 g/ha) with 80% or greater inhibition; approx. 14 days after treating; 30/21° C.
Protocol: (§1) Tables 5 to 8 summarize results of tests conducted as described below to determine the pre-emergence herbicidal activity, in the form of a GR80 value, of illustrative compounds of this invention. […] Compounds of the invention were typically applied at rates of 300, 100, 30, and 10 g/ha. Where herbicidal activity was evident but 80% inhibition was not achieved at the highest rate tested, an asterisk (*) is shown in the following tables.
(§2) The pre-emergence tests were conducted by the following procedure. Topsoil was sieved to pass through a 1.27 cm screen. Fertilizer was added to the topsoil and the mixture was then sterilized by heating. The topsoil mixture was placed in a pot and compacted to a depth of 1.0 to 1.25 cm from the top of the pot. Seeds of each of several monocotyledonous and dicotyledonous annual plant species were placed on top of the soil. Additional soil was subsequently placed over the seeds to level-fill the pot. A known amount of each test compound dissolved or suspended in an appropriate organic solvent was diluted with a 50:50 mix of acetone and water and applied to the surface of the soil. After treatment the plants were placed in a greenhouse where they received 0.64 cm of overhead irrigation. All subsequent watering consisted of a light overhead mist and/or subirrigation as needed for germination and growth. Tables 5 and 6 below relate to warm season plant species which were placed after pre-emergence treatment in a greenhouse with a 30/21° C. day/night temperature regime. Tables 7 and 8 below relates to cool season plant species placed after pre-emergence treatment in a greenhouse or growth chamber with an 18/13° C. day/night temperature regime.
(§3) Approximately 14 days after planting and treating, the plants were observed and herbicidal efficacy recorded as percent inhibition by comparison with untreated plants.
(§4) The plant species usually regarded as weeds which were utilized in the tests are identified in the tables below according to the following legend, in which “d” indicates a dicotyledonous species and “m” a monocotyledonous species. All monocotyledonous species included in the tests herein are grasses.

[2] = tested on: GALAP (catchweed bedstraw); assay: Pre-emergence herbicidal activity, cool season; assay type: in vivo, Galium aparine; details: lowest tested rate with 80% or greater inhibition; rates 300, 100, 30, 10 g/ha; about 14 days
Protocol: as §1, §2, §3, §4

[3] = tested on: POLCO (wild buckwheat); assay: Pre-emergence herbicidal activity, cool season; assay type: in vivo, Polygonum convolvulus; details: lowest tested rate with 80% or greater inhibition; rates 300, 100, 30, 10 g/ha; about 14 days
Protocol: as §1, §2, §3, §4

[4] = tested on: SINAR (wild mustard); assay: Pre-emergence herbicidal activity, cool season; assay type: in vivo, Sinapis arvensis; details: lowest tested rate with 80% or greater inhibition; rates 300, 100, 30, 10 g/ha; about 14 days
Protocol: as §1, §2, §3, §4

[5] = tested on: VERPE (creeping speedwell); assay: Pre-emergence herbicidal activity, cool season; assay type: in vivo, Veronica persicaria; details: lowest tested rate with 80% or greater inhibition; rates 300, 100, 30, 10 g/ha; about 14 days
Protocol: as §1, §2, §3, §4

[6] = tested on: SASKR (russian thistle); assay: Pre-emergence herbicidal activity, cool season; assay type: in vivo, Salsola kali; details: lowest tested rate with 80% or greater inhibition; rates 300, 100, 30, 10 g/ha; about 14 days
Protocol: as §1, §2, §3, §4

[7] = tested on: STEME (common chickweed); assay: Pre-emergence herbicidal activity, cool season; assay type: in vivo, Stellaria media; details: lowest tested rate with 80% or greater inhibition; rates 300, 100, 30, 10 g/ha; about 14 days
Protocol: as §1, §2, §3, §4

[8] = tested on: LAMPU (purple deadnettle); assay: Pre-emergence herbicidal activity, cool season; assay type: in vivo, Lamium purpureum; details: lowest tested rate with 80% or greater inhibition; rates 300, 100, 30, 10 g/ha; about 14 days
Protocol: as §1, §2, §3, §4

[9] = tested on: ALOMY (blackgrass); assay: Pre-emergence herbicidal activity, cool season; assay type: in vivo, Alopecurus myosuroides; details: GR80 = lowest tested rate (300, 100, 30, 10 g/ha) with 80% or greater inhibition; approx. 14 days after treating; 18/13° C.
Protocol: as §1, §2, §3, §4

[10] = tested on: AGSST (creeping bentgrass); assay: Pre-emergence herbicidal activity, cool season; assay type: in vivo, Agrostis stolonifera; details: GR80 = lowest tested rate (300, 100, 30, 10 g/ha) with 80% or greater inhibition; approx. 14 days after treating; 18/13° C.
Protocol: as §1, §2, §3, §4

[11] = tested on: CHEAL (common lambsquarters); assay: Pre-emergence herbicidal activity, warm season; assay type: in vivo, Chenopodium album; details: GR80 = lowest tested rate (300, 100, 30, 10 g/ha) with 80% or greater inhibition; approx. 14 days after treating; 30/21° C.
Protocol: as §1, §2, §3, §4

[12] = tested on: POROL (common purslane); assay: Pre-emergence herbicidal activity, warm season; assay type: in vivo, Portulaca oleracea; details: GR80 = lowest tested rate (300, 100, 30, 10 g/ha) with 80% or greater inhibition; approx. 14 days after treating; 30/21° C.
Protocol: as §1, §2, §3, §4

[13] = tested on: DIGSA (large crabgrass); assay: Pre-emergence herbicidal activity, warm season; assay type: in vivo, Digitaria sanguinalis; details: GR80 = lowest tested rate (300, 100, 30, 10 g/ha) with 80% or greater inhibition; approx. 14 days after treating; 30/21° C.
Protocol: as §1, §2, §3, §4

[14] = tested on: SETVI (green foxtail); assay: Pre-emergence herbicidal activity, cool season; assay type: in vivo, Setaria viridis; details: GR80 = lowest tested rate (300, 100, 30, 10 g/ha) with 80% or greater inhibition; approx. 14 days after treating; 18/13° C.
Protocol: as §1, §2, §3, §4

[15] = tested on: SORHA (johnsongrass (seedling)); assay: Pre-emergence herbicidal activity, warm season; assay type: in vivo, Sorghum halepense; details: GR80 = lowest tested rate (300, 100, 30, 10 g/ha) with 80% or greater inhibition; approx. 14 days after treating; 30/21° C.
Protocol: as §1, §2, §3, §4

[16] = tested on: SETFA (giant foxtail); assay: Pre-emergence herbicidal activity, warm season; assay type: in vivo, Setaria faberi; details: GR80 = lowest tested rate (300, 100, 30, 10 g/ha) with 80% or greater inhibition; approx. 14 days after treating; 30/21° C.
Protocol: as §1, §2, §3, §4

[17] = tested on: BRAPP (broadleaf signalgrass); assay: Pre-emergence herbicidal activity, warm season; assay type: in vivo, Brachiaria platyphylla; details: GR80 = lowest tested rate (300, 100, 30, 10 g/ha) with 80% or greater inhibition; approx. 14 days after treating; 30/21° C.
Protocol: as §1, §2, §3, §4

[18] = tested on: SOLNI (black nightshade); assay: Pre-emergence herbicidal activity, warm season; assay type: in vivo, Solanum nigrum; details: GR80 = lowest tested rate (300, 100, 30, 10 g/ha) with 80% or greater inhibition; approx. 14 days after treating; 30/21° C.
Protocol: as §1, §2, §3, §4

[19] = tested on: ECHCG (barnyardgrass); assay: Pre-emergence herbicidal activity, warm season; assay type: in vivo, Echinochloa crus-galli; details: GR80 = lowest tested rate (300, 100, 30, 10 g/ha) with 80% or greater inhibition; approx. 14 days after treating; 30/21° C.
Protocol: as §1, §2, §3, §4

SMILES	Pre-emergence activity (GR80) PANMI [1]	Pre-emergence activity GR80, GALAP [2]	Pre-emergence activity GR80, POLCO [3]	Pre-emergence activity GR80, SINAR [4]	Pre-emergence activity GR80, VERPE [5]	Pre-emergence activity GR80, SASKR [6]	Pre-emergence activity GR80, STEME [7]	Pre-emergence activity GR80, LAMPU [8]	Pre-emergence activity (GR80) ALOMY [9]	Pre-emergence activity (GR80) AGSST [10]	Pre-emergence activity (GR80) CHEAL [11]	Pre-emergence activity (GR80) POROL [12]	Pre-emergence activity (GR80) DIGSA [13]	Pre-emergence activity (GR80) SETVI [14]	Pre-emergence activity (GR80) SORHA [15]	Pre-emergence activity (GR80) SETFA [16]	Pre-emergence activity (GR80) BRAPP [17]	Pre-emergence activity (GR80) SOLNI [18]	Pre-emergence activity (GR80) ECHCG [19]
C=CCN(C)C(=O)n1cnc(S(=O)(=O)C(F)(F)Br)n1 [Example 41]	300 g/ha	[empty]	[empty]	[empty]	100 g/ha	[empty]	[empty]	[empty]	300 g/ha	30 g/ha									
O=C(N1CCOCC1)n1cnc(S(=O)(=O)C(F)(F)Br)n1 [Example 36]		300 g/ha	[empty]	[empty]	[empty]	[empty]	[empty]	300 g/ha			300 g/ha								
C=CCN(C)C(=O)n1cnc(S(=O)(=O)C(F)(F)Cl)n1 [Example 89]	300 g/ha	300 g/ha	100 g/ha	300 g/ha	[empty]	300 g/ha	100 g/ha	100 g/ha		100 g/ha		100 g/ha	100 g/ha	100 g/ha					
C=CCN(C)C(=O)n1cnc(S(=O)(=O)C(F)(F)C(F)F)n1 [Example 65]	300 g/ha	30 g/ha	100 g/ha	300 g/ha	100 g/ha	[empty]	300 g/ha	100 g/ha	100 g/ha	300 g/ha	300 g/ha			100 g/ha					
CCN(CC)C(=S)n1cnc(S(=O)(=O)C(F)(F)C(F)(F)Br)n1 [Example 82]	300 g/ha	[empty]	300 g/ha	300 g/ha	300 g/ha	[empty]	300 g/ha	300 g/ha		300 g/ha	300 g/ha	30 g/ha		100 g/ha	300 g/ha	300 g/ha	300 g/ha		
CN(Cc1ccccc1)C(=O)n1cnc(S(=O)(=O)C(F)(F)C(F)F)n1 [Example 68]	300 g/ha	300 g/ha	300 g/ha	300 g/ha	[empty]	[empty]	[empty]	[empty]						300 g/ha		300 g/ha		300 g/ha	
CN(C)C(=O)n1cnc(S(=O)(=O)C(F)(F)C(F)(F)Br)n1 [Example 73]	100 g/ha	100 g/ha	[empty]	100 g/ha	100 g/ha	100 g/ha	300 g/ha	300 g/ha		100 g/ha				300 g/ha	300 g/ha				300 g/ha
CN(C)C(=O)n1cnc(S(=O)(=O)C(F)(F)Br)n1 [Example 37]	300 g/ha	[empty]	[empty]	[empty]	[empty]	[empty]	300 g/ha	300 g/ha		100 g/ha		300 g/ha	300 g/ha		300 g/ha				300 g/ha
COCCN(C)C(=O)n1cnc(S(=O)(=O)C(F)(F)C(F)F)n1 [Example 64]	100 g/ha	300 g/ha	100 g/ha	100 g/ha	30 g/ha	10 g/ha	100 g/ha	300 g/ha	300 g/ha	100 g/ha		300 g/ha	300 g/ha	100 g/ha		300 g/ha	300 g/ha		
CN(C(=O)n1cnc(S(=O)(=O)C(F)F)n1)c1ccccc1 [Example 27]	100 g/ha	300 g/ha	30 g/ha	[empty]	300 g/ha	300 g/ha	[empty]	300 g/ha	300 g/ha		300 g/ha								
C#CCN(C)C(=O)n1cnc(S(=O)(=O)C(F)F)n1 [Example 31]		[empty]	[empty]	[empty]	[empty]	[empty]	[empty]	[empty]					300 g/ha						
CON(C)C(=O)n1cnc(S(=O)(=O)C(F)(F)Br)n1 [Example 45]		[empty]	100 g/ha	300 g/ha	[empty]	[empty]	300 g/ha	[empty]			300 g/ha			300 g/ha					
C#CCN(C)C(=O)n1cnc(S(=O)(=O)C(F)(F)C(F)(F)Br)n1 [Example 78]		[empty]	[empty]	30 g/ha	30 g/ha	100 g/ha	[empty]	100 g/ha										300 g/ha	
